Values quoted from earlier work in patent publication US8877808B2, “Protection against skin diseases by aurin tricarboxylic acid and its derivatives” (Aurin Biotech Inc., priority 2012, dated 2014).

Target: C9 binding to C5b678 (Homo sapiens, UniProt P02748)
Conditions: Lee et al. 2012a

Chain of C9 binding to C5b678 (P02748 22-559): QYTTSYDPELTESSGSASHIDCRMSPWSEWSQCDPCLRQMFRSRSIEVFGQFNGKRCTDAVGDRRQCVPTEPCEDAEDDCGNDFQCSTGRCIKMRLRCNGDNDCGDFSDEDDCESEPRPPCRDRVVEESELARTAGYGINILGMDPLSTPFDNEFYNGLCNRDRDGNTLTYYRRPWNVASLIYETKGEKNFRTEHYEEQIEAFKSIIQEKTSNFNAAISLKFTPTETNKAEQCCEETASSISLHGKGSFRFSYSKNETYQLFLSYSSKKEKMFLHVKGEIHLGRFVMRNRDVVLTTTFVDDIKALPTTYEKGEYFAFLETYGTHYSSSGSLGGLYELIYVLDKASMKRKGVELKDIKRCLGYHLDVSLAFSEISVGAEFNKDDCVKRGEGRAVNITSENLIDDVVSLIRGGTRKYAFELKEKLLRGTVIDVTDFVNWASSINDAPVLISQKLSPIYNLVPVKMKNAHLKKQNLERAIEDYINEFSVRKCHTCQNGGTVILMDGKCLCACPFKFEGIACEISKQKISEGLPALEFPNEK

## aurin hexacarboxylic acid [AHA]
  block of classical pathway at C9 binding to C5b678, formation of the MAC (C5b-9): block classical pathway formation at the stage of C9 binding to C5b678

## aurin quadracarboxylic acid [AQA]
  block of classical pathway at C9 binding to C5b678, formation of the MAC (C5b-9): block classical pathway formation at the stage of C9 binding to C5b678
